Laboratory results as given in PMC4122966, “Novel VCP modulators mitigate major pathologies of rd10, a mouse model of retinitis pigmentosa” (Scientific Reports, 2014).

What was measured:
HeLa cells [1] = test: immunocytochemistry of laminin γ1 aggregation in tunicamycin-treated cells; assay type: cell-based
Experimental: (§1) Figure 4 KUSs and ATP each prevented a decrease of ATP levels and ameliorated ER stress in tunicamycin-treated cells. (a) Immunocytochemical analyses of HeLa cells by an anti-laminin γ1 antibody. HeLa cells were treated with 0.5 μg/ml of tunicamycin (Tm) for 5 hours in the presence of KUSs (50 μM), ATP (0.1, 0.3, and 1 mM), methylpyruvate (MePyr) (3 and 10 mM), or vehicle alone (DMSO). Then, cells were fixed and subjected to immunocytochemical analyses. Normally growing HeLa cells were also analyzed (Control). Scale bar, 10 μm. (b) Measurements of the relative amounts of ATP per cell. HeLa cells were treated with tunicamycin (Tm, 0.5 μg/ml) for 24 hours in the presence of KUSs (50 μM) or ATP (0.1 and 1 mM), or vehicle alone (DMSO), and were harvested. Then, ATP amounts from 1.5 × 10^5 cells were measured. * P < 0.05, ** P < 0.01. Error bars indicate SD. (c) Western blot analyses on CHOP. HeLa cells were treated with 0.5 μg/ml of tunicamycin for 5 hours in the presence of KUSs (50 μM), ATP (0.1, 0.3, and 1 mM), methylpyruvate (MePyr) (3 and 10 mM), or vehicle alone (-). Then, cells were harvested and subjected to western blot analyses. Actin served as a loading control. Complete scans of the different blots are presented in Supplementary Fig. 9.

HeLa cells [2] = test: relative ATP amounts per cell in tunicamycin-treated cells; assay type: cell-based; conditions: Tm 0.5 μg/ml, 24 hours, ATP 0.1 and 1 mM
Experimental: as §1

[3] = tested on: tunicamycin-treated HeLa cells; test: western blot of ER stress markers and phospho-Akt in tunicamycin-treated cells; assay type: cell-based; conditions: Tm 0.5 μg/ml, 5 hours, 0.1 mM ATP
Experimental: Figure 2 Prevention of cell death and ER stress by KUSs. (a) Photographs of HeLa cells, cultured with DMSO (DMSO) or KUSs (KUS94, KUS121, and KUS187, 20 μM each) for 41 hours in low glucose (0.2 g/l) medium. Scale bar, 100 μm. (b–e) WST (water-soluble tetrazolium salts) values reflecting relative live cell numbers are shown, as optical density (OD) at 450 nm. Error bars indicate SD. (b) WST values of HeLa cells, cultured in low glucose (0.2 g/l) with DMSO (control) or KUSs (50 μM for KUS121; 20 μM for KUS69, KUS94, and KUS187, n = 3) for 41 hours. (c) Cell viability, indicated by WST values of HeLa cells, cultured with tunicamycin (Tm) (0.2 μg/ml) for 41 hours with KUSs (20 μM each, n = 3). (d) WST values of HEK293 cells, cultured under serum-free conditions for 65 hours with DMSO (control) or KUSs (20 μM each, n = 3). *** P < 0.001, vs. DMSO control (Dunnett's test). (e) WST values of HeLa cells, cultured in low glucose (0.2 g/l) medium with different concentrations of KUS121 (5, 10, 20, and 50 μM, n = 3) for 41 hours. ** P = 0.008, *** P < 0.001, vs. DMSO control (Dunnett's test). […]
Figure 4 KUSs and ATP each prevented a decrease of ATP levels and ameliorated ER stress in tunicamycin-treated cells. […] Normally growing HeLa cells were also analyzed (Control). […] Then, ATP amounts from 1.5 × 10^5 cells were measured. * P < 0.05, ** P < 0.01. […]

VCP = tested on: VCP; parameters: method as in PMID 21383145; conditions: reported value; read-out: in vitro IC50 (half maximal inhibitory concentration) for VCP; cited from earlier work
HeLa cells [4] = test: cell death-inducing activity; assay type: cell-based; conditions: 50 μM, 24 hours
Excerpt: (§2) Figure 1 Structures and characterization of KUSs, novel VCP modulators. (a) Structures and IC50 values of KUS11, KUS31, KUS69, KUS94, KUS121, and KUS187. […] (b) ATPase activity assays of recombinant human […], comparing KUSs and DBeQ. (c) Immunoblot analysis of ubiquitinated proteins, an ER stress marker (CHOP), and an autophagy indicator (LC3), comparing KUSs and DBeQ. As a control, MG132, a proteasome inhibitor, was used for the analysis. Actin served as a loading control. Complete scans of the different blots are presented in Supplementary Fig. 7. (d) Comparison of KUSs and DBeQ for cell death-inducing activities. HeLa cells were treated with 50 μM DBeQ or KUSs for 24 hours. […]

cellular VCP functions = test: immunoblot of ubiquitinated proteins, CHOP (ER stress) and LC3 (autophagy) in cultured cells; assay type: cell-based
Excerpt: as §2

SMILES	aggregation of laminin γ1 (HeLa cells [1]; HeLa, Tm 0.5 μg/ml, 5 hours, 0.1 mM ATP)	aggregation of laminin γ1 (HeLa cells [1]; HeLa, Tm 0.5 μg/ml, 5 hours, 1 mM ATP)	aggregation of laminin γ1 (HeLa cells [1]; tunicamycin-treated HeLa cells, ATP at 0.3 to 1 mM)	decrease of ATP levels in tunicamycin-treated cells (HeLa cells [2])	induction of ER stress (CHOP induction) [3]	IC50 (VCP) [µM]	induction of cell death (HeLa cells [4])	induction of accumulation of ubiquitinated proteins, ER stress (CHOP), autophagy (LC3) (cellular VCP functions)
Nc1ncnc2c1ncn2[C@@H]1O[C@H](COP(=O)(O)OP(=O)(O)OP(=O)(O)O)[C@@H](O)[C@H]1O [ATP]	ineffective in preventing the aggregation of laminin γ1	clearly prevented the aggregation of laminin γ1	prevented the aggregation of laminin γ1	prevented decreases of ATP levels	dampen the induction of ER stress	–	–	–
c1ccc(CNc2nc(NCc3ccccc3)c3ccccc3n2)cc1 [DBeQ, reference compound]	–	–	–	–	–	1	eventually cell death	induced accumulation of ubiquitinated proteins, ER stress, autophagy
